Key:
α5 integrin subunit = target: T1, α5 integrin subunit (Homo sapiens, UniProt P08648); test: Triton X-100 fractionation of MEC lysates, α5 integrin; assay type: cell-based
T1 construct: host or cells: human dermal microvascular endothelial cells (MEC)
Method: α5β1-integrin heterodimer and αvβ3-integrin heterodimer are primary targets of AXT107.
The isolation of Triton X-100 soluble and insoluble fractions was performed using modifications to previously-described procedures (see, e.g., Lampugnani et al., J Cell Biol. 1995; 129(1):203-217). FN1-coated six-well plates were seeded with 2.5×10^6 cells and cultured for forty-eight hours, as described above. The cultures were then serum starved for ninety minutes in EBM-2 media, treated with 100 μM AXT107 or DMSO vehicle, and fifteen minutes with 1 mM sodium vanadate. […] The plates were then transferred to ice and washed twice with cold dPBS containing Ca^2+ and Mg^2+ and twice with EBM-2 media. The media was then removed and the cells incubated for thirty minutes on ice, at 4° C. in 200 μl of Triton X-100 extraction buffer (10 mM Tris-HCl, pH 7.5; 150 mM NaCl; 2 mM CaCl2); 1% NP-40; 1% […]; and a protease inhibitor cocktail (Cell Signaling, Cat#: 5871)) with occasional agitation. The extraction buffer was gently collected and centrifuged at 12,000×g for five minutes. The supernatant was then mixed with 125 μl of 3×Blue Loading Dye, boiled, and saved as the Triton X-100 soluble fraction at −20° C. […] Samples were analyzed by western blot as described above. […]

phospho-Tie2 (Y992) = test: Immunofluorescence of phospho-Tie2 in MEC monolayers; assay type: cell-based, human; conditions: 200 ng/ml Ang2 15 min and AXT107
Method: As such, subsequent experiments evaluate the effects of AXT107 at cell-cell junctions in MEC monolayers using immunofluorescence microscopy rather than at the EC-ECM interface.
Glass-bottomed, 96-well plates with half well size were coated with 10 μg/ml FN1 for two hours at 37° C. The FN1 solution was then removed by aspiration and the plate seeded with 4×10^3 MECs in EGM-2MV media. After twenty-four hours, the cells were washed once with dPBS containing Ca^2+ and Mg^2+ to remove dead cells and the cells were allowed to grow for an additional twenty-four hours. For three-hour duration treatments (i.e., VE-cadherin), cells were washed twice with dPBS containing Ca^2+ and Mg^2+ and serum starved in EBM-2 for ninety minutes. The media was then removed and the cells were treated for three hours with 100 μl of EBM-2 media containing 200 ng/ml Ang2 or PBS and varying concentrations of AXT107 or DMSO. For fifteen minute-treated samples (i.e., phospho-Tie2), the cells were serum starved in EBM-2 media for 165 minutes, incubated for ninety minutes with varying concentrations of AXT107 or DMSO in EBM-2, and finally stimulated for fifteen minutes with 200 ng/ml Ang2 or PBS supplemented with peptide to retain the same concentrations. These times were chosen so that both treatment procedures would be completed at the same time. […]

MEC monolayers = test: FITC Transwell permeability assay; assay type: cell-based, human
Method: The integrity of these junctions is also important for the regulation of monolayer permeability by controlling the size of intercellular openings. The effect of the AXT107 on EC permeability was further investigated by the transendothelial diffusion of FITC-labeled dextran across MEC monolayers seeded onto permeable Transwell® substrates.
Transwell, twenty-four-well inserts (Corning) were coated with 7.5 μg/cm^2 FN1 for two hours at 37° C., aspirated, and then dried for thirty minutes at room temperature. Wells were then seeded with 7.5×10^4 MECs in 100 μl of EBM-2 media (without phenol red) and allowed to settle for thirty minutes at room temperature. 1 ml of EGM-2 media was then added to the bottom chamber and an additional 200 μl to the top chamber. The plate was incubated for twenty-four hours at 37° C. after which the media was aspirated and an additional 7.5×10^4 MECs were plated in each well as described above. After forty-eight hours at 37° C., the media was aspirated from both chambers and the cells were washed twice in dPBS containing Ca^2+ and Mg^2+, once with EBM-2 media (without phenol red) and serum starved in EBM-2 media applied to both chambers for two hours at 37° C. After this incubation, 100 μM AXT107 or an equivalent amount of DMSO vehicle was added and incubated for an additional ninety minutes. In the top chamber, the cells were then treated with 200 ng/ml Ang2, 100 ng/ml VEGFA, both, or PBS control and in the bottom chamber, the cells were then treated with 25 μg/ml FITC-Dextran (40 kDa MW). AXT107 was also added in both chambers to maintain a concentration of 100 μM. After three hours, 10 μl was removed from the top chamber of each well and mixed with 90 μl of water in a clear bottom, 96-well plate. Fluorescence values for each sample were calculated using a Perkin Elmer plate reader.

T1 sequence (P08648 42-894 limits assumed): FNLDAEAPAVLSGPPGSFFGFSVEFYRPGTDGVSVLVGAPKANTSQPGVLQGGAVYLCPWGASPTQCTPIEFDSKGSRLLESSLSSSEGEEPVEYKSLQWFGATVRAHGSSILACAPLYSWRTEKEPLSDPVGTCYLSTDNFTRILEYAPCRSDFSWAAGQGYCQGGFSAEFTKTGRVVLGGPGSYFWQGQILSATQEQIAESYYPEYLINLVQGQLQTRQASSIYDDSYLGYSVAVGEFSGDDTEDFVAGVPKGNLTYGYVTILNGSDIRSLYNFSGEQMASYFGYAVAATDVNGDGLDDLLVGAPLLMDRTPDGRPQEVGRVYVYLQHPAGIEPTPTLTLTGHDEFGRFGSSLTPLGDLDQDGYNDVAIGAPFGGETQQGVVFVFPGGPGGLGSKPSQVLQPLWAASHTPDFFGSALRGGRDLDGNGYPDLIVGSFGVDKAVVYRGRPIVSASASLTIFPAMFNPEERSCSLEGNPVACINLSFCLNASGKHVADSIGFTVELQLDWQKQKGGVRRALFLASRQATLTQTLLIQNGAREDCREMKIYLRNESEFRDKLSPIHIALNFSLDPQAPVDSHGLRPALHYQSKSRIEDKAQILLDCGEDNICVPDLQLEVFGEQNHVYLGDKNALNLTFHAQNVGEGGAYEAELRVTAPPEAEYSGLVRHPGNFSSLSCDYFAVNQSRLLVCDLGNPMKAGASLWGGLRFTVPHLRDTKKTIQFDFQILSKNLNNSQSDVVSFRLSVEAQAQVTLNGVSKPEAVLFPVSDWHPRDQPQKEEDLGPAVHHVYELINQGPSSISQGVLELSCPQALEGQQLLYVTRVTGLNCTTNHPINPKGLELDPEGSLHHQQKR
T1 sequence (P08648 895-1049 limits assumed): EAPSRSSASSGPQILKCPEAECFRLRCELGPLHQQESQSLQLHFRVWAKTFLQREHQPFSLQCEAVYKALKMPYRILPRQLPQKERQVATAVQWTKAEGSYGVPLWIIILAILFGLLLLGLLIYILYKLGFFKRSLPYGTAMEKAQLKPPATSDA

Question: For LRRFSTAPFAFIDINDVINF [AXT107], which “α5 integrin subunit location in fractionated lysates” value (α5 integrin subunit; 100 μM AXT107) is on record?
Answer: relocated to the insoluble fraction

Question: What about the “α5 integrin after immunoprecipitation of Tie2” value (α5 integrin subunit; Triton X-100 fractionated lysates, with 200 ng/ml Ang2 or no growth factor) of the same sequence?
Answer: observed in the peptide-treated, insoluble fraction

Question: And the “phospho-Tie2 fluorescence intensity and distribution” value (phospho-Tie2 (Y992))?
Answer: increased overall fluorescence intensity and redistributed phospho-Tie2 along cell-cell junctions and into large clusters

Question: And the “FITC-dextran diffusion into the top chamber” value (MEC monolayers; Ang2 alone added to monolayers pre-incubated with 100 μM AXT107, vs growth factor alone)?
Answer: significant decrease

Question: And the “FITC-dextran diffusion into the top chamber” value (MEC monolayers; Ang2 in combination with VEGF, monolayers pre-incubated with 100 μM AXT107, vs growth factors alone)?
Answer: significant decrease

Question: What about the FITC-dextran diffusion (MEC monolayers; VEGF in presence vs absence of peptide) of the same sequence?
Answer: similar, but non-significant trend

Question: And the “FITC-dextran diffusion across the monolayer, single treatment” value (MEC monolayers; each agent alone)?
Answer: influenced FITC-dextran diffusion across the monolayer
